In US12617794B2, “GABAA positive allosteric modulator compounds, methods of making, and uses thereof” (NEUROCYCLE THERAPEUTICS, INC., priority 2019, dated 2026):

Experiments:
[1] = Pharmacokinetics in rats (Example 17); format: in vivo, Sprague-dawley rats; conditions: rat, PO 2 mg/kg, mean
Method: To evaluate the pharmacokinetics (PK) of Phosphate Polymorphic Form A, suspensions or solutions were dosed by either oral gavage (0.5% methyl cellulose) or IV (60% PEG400/40% saline) in normal, healthy, male Sprague-dawley rats with serial blood collection focused on the first 48 hours of exposure. Rats were dosed with vehicle or test compounds at 1 mg/kg (IV) or 2 mg/kg (PO). Approximately 0.2 mL blood was collected at each time point. All blood samples were collected jugular vein puncture. All blood samples were transferred into plastic microcentrifuge tubes containing 5 μL of EDTA-K2 as anti-coagulant or pre-chilled commercial EDTA-K2 tubes and placed on wet ice until centrifugation. Harvested blood samples were centrifuged within 30 min of collection at 7,000 rpm for 10 minutes. The extracts were analyzed for compound concentration by LC/MS/MS. Data were analyzed with Phoenix WinNonlin 6.3 using the IV-Noncompartmental model 201 (IV bolus input) and PO-Noncompartmental model 200 (extravascular input) methods.

[2] = Mechanical treatment (grinding) of Phosphate Form A; format: physicochemical; conditions: for crystal form after grinding (XRPD): ground manually with mortar and pestle, 3-5 minutes
Description: The crystal form was unchanged after grinding.

[3] = Liquid vapor diffusion (Example 61); format: physicochemical; conditions: RT, 6 days
Description: After filtration, the filtrate in a small vial was put into a bigger vial containing anti-solvent. The bigger vial was left at RT for days. If precipitation occurred, solid was collected and characterized.
After filtration, the filtrate was transferred into a small vial, which was then placed inside a bigger vial which contained anti-solvent. The bigger vial was left at RT for 6 days. If precipitation occurred, solid was collected and characterized. No new phosphate form was obtained.

[4] = Fast cooling crystallization (Example 63); format: physicochemical; conditions: fast cooling to 4° C. or −20° C.
Method: The suspensions were filtered to obtain saturated solution which was cooled to final temperature (4° C. or −20° C.) immediately and characterized.
The suspensions were filtered to obtain saturated solutions which were immediately cooled to final temperature (4° C. or −20° C.). Any solids obtained were characterized.

[5] = Polymer induced crystallization (Example 67); format: physicochemical; conditions: evaporative crystallization at RT, ~10% polymer
Method: Then ˜10% of polymer was added into clear solution. The mixture was evaporated to dryness at RT. The solid was isolated and characterized.
No new phosphate form was obtained.

What does the source list for `CC(C)(O)c1cnn2c(-c3ccc(F)c(-c4c(F)cccc4C#N)c3)cnc2n1` [Phosphate Polymorphic Form A, 2′,6-difluoro-5′-[3-(1-hydroxy-1-methylethyl)-imidazo[1,2-b][1,2,4]triazin-7-yl]biphenyl-2-carbonitrile]?
AUCExtra (%) [1]: 6.25%; crystallinity after grinding [2]: decreased; crystal form after grinding (XRPD) ([2]; listed as Phosphate Form A): unchanged; crystal form after grinding (XRPD) ([2]; listed as TPA023B Phosphate Form A): remained unchanged; crystal form after grinding (XRPD) ([2]; listed as phosphate Form A): no change; Result (solid form obtained) ([3]; solvent 2-methyl tetrahydrofuran, anti-solvent Chloroform): Phosphate Form A; Result (solid form obtained) ([3]; solvent 2-methyl tetrahydrofuran, anti-solvent Methyl cyclohexane): Phosphate Form A; Result (solid form obtained) ([3]; solvent 2-methyl tetrahydrofuran, anti-solvent xylene): Phosphate Form A; Result (solid form obtained) ([3]; solvent DMAC, anti-solvent DCM): No solid; Result (solid form obtained) ([3]; solvent DMAC, anti-solvent EA): No solid; Result (solid form obtained) ([3]; solvent DMAC, anti-solvent Isopropyl ether): No solid; Result (solid form obtained) ([3]; solvent Diox, anti-solvent ACN): No solid; Result (solid form obtained) ([3]; solvent Diox, anti-solvent BAC): Phosphate Form A; Result (solid form obtained) ([3]; solvent Diox, anti-solvent DCM): Phosphate Form A; Result (solid form obtained) ([3]; solvent Diox, anti-solvent Heptane): Phosphate Form A; Result (solid form obtained) ([3]; solvent Diox, anti-solvent Isopropyl ether): Phosphate Form A; Result (solid form obtained) ([3]; solvent MEK, anti-solvent Cyclohexanone): Phosphate Form A; Result (solid form obtained) ([3]; solvent MEK, anti-solvent DCM): Phosphate Form A; Result (solid form obtained) ([3]; solvent MEK, anti-solvent MAC): No solid; Result (solid form obtained) ([3]; solvent MEK, anti-solvent MTBE): No solid; Result (solid form obtained) ([3]; solvent MEK, anti-solvent Trichloromethane): Phosphate Form A; Result (solid form obtained) ([3]; solvent NMP, anti-solvent Chloroform): No solid; Result (solid form obtained) ([3]; solvent NMP, anti-solvent Isopropyl ether): No solid; Result (solid form obtained) ([3]; solvent NMP, anti-solvent MEK): No solid; Result (solid form obtained) ([3]; solvent THF, anti-solvent ACN): No solid; Result (solid form obtained) ([3]; solvent THF, anti-solvent EA): Phosphate Form A; Result (solid form obtained) ([3]; solvent THF, anti-solvent N-pentane): Phosphate Form A; Result (solid form obtained) ([3]; solvent THF, anti-solvent Toluene): Phosphate Form A; Result (solid form obtained) ([3]; solvent THF, anti-solvent Trichloromethane): No solid; Result (solid form obtained) ([4]; solvent 1,4-dioxane): No solid; Result (solid form obtained) ([4]; solvent 1-methyl-2-pyrrolidone): No solid; Result (solid form obtained) ([4]; solvent 2-butanone): Phosphate Form A; Result (solid form obtained) ([4]; solvent 2-methyl tetrahydrofuran): No solid; Result (solid form obtained) ([4]; solvent 4-methyl-2-pentanone): Phosphate Form A; Result (solid form obtained) ([4]; solvent ACN): Phosphate Form A; Result (solid form obtained) ([4]; solvent Acetone): Phosphate Form A; Result (solid form obtained) ([4]; solvent Anisole): No solid; Result (solid form obtained) ([4]; solvent BAC): Phosphate Form A; Result (solid form obtained) ([4]; solvent Butanol): Freebase form A; Result (solid form obtained) ([4]; solvent DMF): No solid; Result (solid form obtained) ([4]; solvent DMSO): No solid; Result (solid form obtained) ([4]; solvent EA): Phosphate Form A; Result (solid form obtained) ([4]; solvent Ethyl formate): Phosphate Form A; Result (solid form obtained) ([4]; solvent Isoamyl alcohol): New Free Base pattern K; Result (solid form obtained) ([4]; solvent MAC): Phosphate Form A; Result (solid form obtained) ([4]; solvent MEK): Phosphate Form A; Result (solid form obtained) ([4]; solvent Propyl acetate): Phosphate Form A; Result (solid form obtained) ([4]; solvent THF): No solid; Result (solid form obtained) ([5]; solvent MEK, polymer EC (Ethyl cellulose)): Phosphate Form A; Result (solid form obtained) ([5]; solvent MEK, polymer PAA Poly(acrylic acid)): Phosphate Form A; Result (solid form obtained) ([5]; solvent MEK, polymer PEG4000, listed as Phosphate Form A): Free Base Form F; Result (solid form obtained) ([5]; solvent MEK, polymer PVP-K30 (Polyvinyl pyrrolidone), listed as Phosphate Form A): Free Base Form F; Result (solid form obtained) ([5]; solvent THF, polymer EC): Phosphate Form A; Result (solid form obtained) ([5]; solvent THF, polymer PAA Poly): Phosphate Form A; Result (solid form obtained) ([5]; solvent THF, polymer PEG4000): Phosphate Form A; Result (solid form obtained) ([5]; solvent THF, polymer PVP-K30): Phosphate Form 1A
